Tests used:
[1] = oral administration; cited from earlier work
[2] = Bioequivalence test: blood plasma phenylbutazone levels (HPLC) after horses eat the product mixed in grain; type: in vivo, horse; parameters: unit not given here; details: 4 g phenylbutazone in grain, oral, average of five horses
Protocol: The above product mixture was tested for bioequivalency as follows. Three healthy mature geldings and two non-pregnant mares aged 3-15 years with similar weights were chosen for a bioequivalence test. The bioequivalence test was designed to determine the difference in blood plasma absorption between commercially available phenylbutazone tablets and the inventive product mixture described above. […] At five o'clock p.m. the evening before the test, each horse was fed a normal meal consisting of 1 gallon of grain with fourteen percent protein, and ten pounds of alfalfa hay. During the test each horse was stabled separately and had access to drinking water at all times. On test day, each horse was fasted until administration of the test product, and then given a normal meal consisting of one gallon of grain with fourteen percent protein and ten pounds of alfalfa hay five hours post dosing and at twelve and one-half hours after administration. The morning of the test, 4.60 grams of the product from example one containing a total of four grams of phenylbutazone, was added to one half gallon of grain with fourteen percent protein by lightly stifling. Each horse was given 15 minutes to consume the grain. […] Each of the five horses followed this procedure. Two hours following administration a 4.5 cc blood sample was taken from each of the five horses. Thereafter, additional 4.5 cc blood samples were taken at half-hour intervals until the sixth hour. After the sixth hour 4.5 cc blood samples were taken hourly until the eighth hour. […] The blood samples were taken with a 20 gauge one inch needle and promptly put into a green CST Lithium Heparin tubes and cooled in ice water at 36 degrees F. When each sample was collected, the blood sample was spun to separate the blood plasma from each sample. The separated blood plasma was placed in a freezer for twenty-four hours at 20 below zero. After twenty-four hours, the blood plasma was thawed to room temperature and phenylbutazone levels were quantified for each sample by a validated HPLC method. Two weeks later after completing a wash out period, the same three healthy mature geldings and two non-pregnant mares aged 3-15 years with similar weights were used for a cross over bioequivalence test. This bioequivalence test was to determine the concentration levels in blood plasma absorption of commercially available phenylbutazone tablets. […] At five o'clock p.m. the evening before the test, each horse was fed a normal meal consisting of 1 gallon of grain with fourteen percent protein, and ten pounds of alfalfa hay. During the test each horse was stabled separately and had access to drinking water at all times. On test day, each horse was fasted until administration of the test product (4 grams of crushed active ingredient phenylbutazone in tablets), and then given a normal meal consisting of one gallon of grain with fourteen percent protein and ten pounds of alfalfa hay five hours post dosing, and at twelve and one-half hours after administration. The morning of the test, four 1 gram tablets of the commercially available phenylbutazone were crushed in to a fine powder, and were added to one half gallon of grain with fourteen percent protein by lightly stifling for each horse. Each horse was given 15 minutes to consume the grain. […] Each of the five horses followed this procedure. Two hours following administration a 4.5 cc blood sample was taken from each of the five horses. Thereafter, additional 4.5 cc blood samples were taken at half-hour intervals until the sixth hour. After the sixth hour 4.5 cc blood samples were taken hourly until the eighth hour. […] The blood samples were taken with a 20 gauge one inch needle and promptly put into a green CST Lithium Heparin tubes and cooled in ice water at 36 degrees F. When each sample was collected, the blood sample was spun to separate the blood plasma from each sample. The separated blood plasma was placed in a freezer for twenty-four hours at 20 below zero. […]

SMILES: CCCCC1C(=O)N(c2ccccc2)N(c2ccccc2)C1=O [Pure Phenylbutazone, 4-butyl-diphenyl-3,5-pyrazoidinedione]
- time required to achieve an effective concentration level [1]: 3 to 5 h
- blood plasma concentration of phenylbutazone ([2]; 2 hours after eating): 5.0
- blood plasma concentration of phenylbutazone ([2]; 3 hours after eating): 6.0
- blood plasma concentration of phenylbutazone ([2]; 4 hours after eating): 8.5
- blood plasma concentration of phenylbutazone ([2]; 5 hours after eating): 10.1
- blood plasma concentration of phenylbutazone ([2]; 6 hours after eating): 12.0
- blood plasma concentration of phenylbutazone ([2]; 7 hours after eating): 13.0
- blood plasma concentration of phenylbutazone ([2]; 8 hours after eating): 12.14
- blood plasma concentration of phenylbutazone ([2]; 10 hours after eating): 9.9
- blood plasma concentration of phenylbutazone ([2]; 12 hours after eating): 7.3
- blood plasma concentration of phenylbutazone ([2]; 18 hours after eating): 4.18

Source: US8524759B2, “Phenylbutazone carrier formulation showing increased bioactivity in animals” (priority 2009, dated 2013)
